Results reported in patent US20070027121A1, “Method of treatment of diarrhea-predominant IBS in a female subject receiving contraceptive therapy” (priority 2005, published 2007).

Key:
[1] = design: dose or concentration left out as unconfirmed; details: co-administration with oral contraceptive containing; cited from earlier work
[2] = test system: follicle stimulating hormone (FSH); assay: Mean serum concentration of FSH in crossover study of OC plus cilansetron or placebo; assay type: in vivo, human; details: FIG. 4
Procedure: (§1) A double-blind, balanced, randomized, two-period, placebo-controlled, crossover study in 20 healthy female subjects (1845 years of age, and who had received Ortho Tri-Cyclen® oral contraceptive (“OC”) for three or more months immediately preceding the start of the study) of cilansetron administration was conducted. All subjects were to have their OC cycles synchronized so that on study Day 1, they received the first dose of their OC for that cycle. All subjects were to continue to receive daily administrations of OC through each of the two consecutive 28-day study periods. […] Safety was measured by monitoring adverse events, physical examination, clinical laboratory and pulmonary function tests, vital signs, 12 lead ECG, and telemetry.
(§2) In efforts to determine the effects (if any) of cilansetron 2 mg administration TID for 7 days on the pharmacodynamics of progesterone (P), luteinizing hormone (LH) and follicle stimulating hormone (FSH), the mean serum concentrations of these hormones was determined across the entire time-course of treatment, as set forth in Tables 6-8 and FIGS. 4-6. […]
(§3) Measurable serum concentrations of […], LH and P were available for 17 out of the 20 subjects, as determined using a validated ADVIA Centaur assay. […]

[3] = test system: luteinizing hormone (LH); assay: Mean serum concentration of LH in crossover study of OC plus cilansetron or placebo; assay type: in vivo, human; details: FIG. 5
Procedure: as §1, §2, §3

[4] = design: species or system human; details: in vivo
Procedure: A double-blind, balanced, randomized, two-period, placebo-controlled, crossover study in 20 healthy female subjects (1845 years of age, and who had received Ortho Tri-Cyclen® oral contraceptive (“OC”) for three or more months immediately preceding the start of the study) of cilansetron administration was conducted. All subjects were to have their OC cycles synchronized so that on study Day 1, they received the first dose of their OC for that cycle. All subjects were to continue to receive daily administrations of OC through each of the two consecutive 28-day study periods. […] In addition, during the first 28 days of the study (“the first period”), half of the subjects were administered 2 mg doses of cilansetron three times daily (TID) for 7 days (i.e., study days 14-21), while the other half of the subjects received equivalent doses of a placebo TID. On the first day of the “second period” of the 56-day study (i.e., day 29), the two groups were crossed over for the administration of the reverse treatment (i.e., those subjects who had been administered cilansetron 2 mg TID in the first period were to receive equivalent placebo administrations, and vice versa) for 7 days (i.e., study days 4249). Thereby, all subjects received both cilansetron and placebo treatments and, therefore, served as their own control. Safety was measured by monitoring adverse events, physical examination, clinical laboratory and pulmonary function tests, vital signs, 12 lead ECG, and telemetry. […]
The mean plasma concentration-time profile for EE was determined for both treatment groups in each of the two study periods, and are set forth in Table 1 (the contents of which are graphically illustrated in FIG. 1). The mean plasma concentration-time profile for NGM was determined for both treatment groups in each of the two study periods, and are set forth in Table 2. The mean plasma concentration-time profile for 17-d-NGM was determined for both treatment groups in each of the two study periods, and are set forth in Table 3 (the contents of which are graphically illustrated in FIG. 2). […]

[5] = test system: progesterone (P); assay: Mean serum concentration of progesterone (P) in crossover study of OC plus cilansetron or placebo; assay type: in vivo, human; details: FIG. 6
Procedure: as §1, §2, §3

## Cc1[nH]cnc1CN1CCc2c(c3ccccc3n2C)C1=O [alosetron]
[1]
  decrease in systemic exposure to the EE component: 9%
  decrease in systemic exposure to the LN component: 13%

## Cc1nccn1C[C@H]1CCc2c(c3cccc4c3n2CCC4)C1=O [cilansetron, (R)-(−)-4,5,6,8,9,10-hexahydro-10-[(2-methyl-1H-imidazol-1-yl)methyl]-11H-pyrido-[3,2,1-jk]-carbazol-11-one]
[2]
  mean serum concentration of FSH compared with OC therapy alone: substantially the same
[3]
  mean serum concentration of LH compared with OC therapy alone: substantially the same
[4]
  effect on the pharmacokinetic and pharmacodynamic profiles and parameters associated with normal contraceptive use: substantially no or no effect
  mean plasma concentration of 17-d-NGM compared with OC therapy alone: substantially the same
  mean plasma concentration of EE compared with OC therapy alone: substantially the same
[5]
  mean serum concentration of endogenous progesterone (P) compared with OC therapy alone: substantially the same
